{"source": "patent US20200024278A1", "about": "“COMPOSITION COMPRISING ANTIBIOTIC COMPOUND AND AN HETEROCYCLIC COMPOUND AND THEIR USE IN PREVENTING OR TREATING BACTERIAL INFECTIONS” (MUTABILIS, priority 2016, published 2020)", "test_in_all_cases": "MIC, broth microdilution (CLSI), substance alone or ATB combined with compound at 4 or 8 μg/mL", "type_in_all_cases": "cell-based, A. baumannii", "key": {"ABA 107292": {"system": "ABA 107292", "description": "(§1) Compounds of the present invention were assessed against genotyped bacterial strains alone or in combination with an antibacterial. In the assays, MICs of said compounds or combination of antibiotics with fixed concentrations of said compounds (4 or 8 μg/mL) were determined by the broth microdilution method according to the Clinical Laboratory Standards Institute (CLSI-M7-A7). Briefly, compounds alone according to the invention were prepared in DMSO and spotted (2 μL each) on sterile polystyrene plates (Corning, 3788). Combinations of compounds and antibiotics dilutions were prepared in DMSO and spotted (1 μL each) on sterile polystyrene plates (Corning, 3788). Log phase bacterial suspensions were adjusted to a final density of 5·10^5 CFU/mL in cation-adjusted Mueller-Hinton broth (ca-MHB; Becton-Dickinson and Company) and added to each well (98 μL). Assays including Fosfomycin were supplemented with 25 μg/ml of Glucose-6-phosphate. Microplates were incubated for 16-20 h at 35° C. in ambient air. The MIC of the compounds was defined as the lowest concentration of said compounds that prevented bacterial growth as read by visual inspection. The MIC of ATB at each compound concentration was defined as the lowest concentration of ATB that prevented bacterial growth as read by visual inspection."}, "ABA UFR155": {"system": "ABA UFR155", "description": "as §1"}, "ABA UFR160": {"system": "ABA UFR160", "description": "as §1"}, "ABA UFR158": {"system": "ABA UFR158", "description": "as §1"}, "ABA UFR154": {"system": "ABA UFR154", "description": "as §1"}, "ABA UFR153": {"system": "ABA UFR153", "description": "as §1"}, "ABA 19606": {"system": "ABA 19606", "description": "as §1"}}, "data": [{"smiles": "CC1(C)[C@H](C(=O)O)N2C(=O)C[C@H]2S1(=O)=O", "note": "[SUL]", "values": [{"measurement": "MIC ATB alone", "setting": "ABA 107292; antibiotic alone", "value": 64, "unit": "mg/L"}, {"measurement": "MIC ATB combined with Example 1 @8 μg/ml", "setting": "ABA 107292; with Example 1 @8 μg/ml", "value": 4, "unit": "mg/L"}, {"measurement": "MIC ATB combined with Example 3 @8 μg/ml", "setting": "ABA 107292; with Example 3 @8 μg/ml", "value": 2, "unit": "mg/L"}, {"measurement": "MIC ATB combined with Example 6 @8 μg/ml", "setting": "ABA 107292; with Example 6 @8 μg/ml", "value": 8, "unit": "mg/L"}, {"measurement": "MIC ATB combined with Example 9 @4 μg/ml", "setting": "ABA 107292; with Example 9 @4 μg/ml", "value": 8, "unit": "mg/L"}, {"measurement": "MIC ATB combined with Example 10 @8 μg/ml", "setting": "ABA 107292; with Example 10 @8 μg/ml", "value": 4, "unit": "mg/L"}, {"measurement": "MIC ATB combined with Example 11 @8 μg/ml", "setting": "ABA 107292; with Example 11 @8 μg/ml", "value": 32, "unit": "mg/L"}, {"measurement": "MIC ATB combined with Example 12 @8 μg/ml", "setting": "ABA 107292; with Example 12 @8 μg/ml", "value": 2, "unit": "mg/L"}, {"measurement": "MIC ATB combined with Example 15 @4 μg/ml", "setting": "ABA 107292; with Example 15 @4 μg/ml", "value": 4, "unit": "mg/L"}, {"measurement": "MIC ATB alone", "setting": "ABA UFR155; antibiotic alone", "value": 16, "unit": "mg/L"}, {"measurement": "MIC ATB combined with Example 1 @8 μg/ml", "setting": "ABA UFR155; with Example 1 @8 μg/ml", "value": 4, "unit": "mg/L"}, {"measurement": "MIC ATB combined with Example 3 @8 μg/ml", "setting": "ABA UFR155; with Example 3 @8 μg/ml", "value": 1, "unit": "mg/L"}, {"measurement": "MIC ATB combined with Example 6 @8 μg/ml", "setting": "ABA UFR155; with Example 6 @8 μg/ml", "value": 2, "unit": "mg/L"}, {"measurement": "MIC ATB combined with Example 9 @4 μg/ml", "setting": "ABA UFR155; with Example 9 @4 μg/ml", "value": 8, "unit": "mg/L"}, {"measurement": "MIC ATB combined with Example 10 @8 μg/ml", "setting": "ABA UFR155; with Example 10 @8 μg/ml", "value": 2, "unit": "mg/L"}, {"measurement": "MIC ATB combined with Example 11 @8 μg/ml", "setting": "ABA UFR155; with Example 11 @8 μg/ml", "value": 4, "unit": "mg/L"}, {"measurement": "MIC ATB combined with Example 12 @8 μg/ml", "setting": "ABA UFR155; with Example 12 @8 μg/ml", "value": 2, "unit": "mg/L"}, {"measurement": "MIC ATB combined with Example 15 @4 μg/ml", "setting": "ABA UFR155; with Example 15 @4 μg/ml", "value": 8, "unit": "mg/L"}, {"measurement": "MIC ATB alone", "setting": "ABA UFR160; antibiotic alone", "value": ">128", "unit": "mg/L"}, {"measurement": "MIC ATB combined with Example 1 @8 μg/ml", "setting": "ABA UFR160; with Example 1 @8 μg/ml", "value": 64, "unit": "mg/L"}, {"measurement": "MIC ATB combined with Example 3 @8 μg/ml", "setting": "ABA UFR160; with Example 3 @8 μg/ml", "value": 64, "unit": "mg/L"}, {"measurement": "MIC ATB combined with Example 6 @8 μg/ml", "setting": "ABA UFR160; with Example 6 @8 μg/ml", "value": "<0.25", "unit": "mg/L"}, {"measurement": "MIC ATB combined with Example 9 @4 μg/ml", "setting": "ABA UFR160; with Example 9 @4 μg/ml", "value": 64, "unit": "mg/L"}, {"measurement": "MIC ATB combined with Example 10 @8 μg/ml", "setting": "ABA UFR160; with Example 10 @8 μg/ml", "value": 64, "unit": "mg/L"}, {"measurement": "MIC ATB combined with Example 11 @8 μg/ml", "setting": "ABA UFR160; with Example 11 @8 μg/ml", "value": 64, "unit": "mg/L"}, {"measurement": "MIC ATB combined with Example 12 @8 μg/ml", "setting": "ABA UFR160; with Example 12 @8 μg/ml", "value": 64, "unit": "mg/L"}, {"measurement": "MIC ATB combined with Example 15 @4 μg/ml", "setting": "ABA UFR160; with Example 15 @4 μg/ml", "value": 64, "unit": "mg/L"}, {"measurement": "MIC ATB alone", "setting": "ABA UFR158; antibiotic alone", "value": 64, "unit": "mg/L"}, {"measurement": "MIC ATB combined with Example 1 @8 μg/ml", "setting": "ABA UFR158; with Example 1 @8 μg/ml", "value": 16, "unit": "mg/L"}, {"measurement": "MIC ATB combined with Example 3 @8 μg/ml", "setting": "ABA UFR158; with Example 3 @8 μg/ml", "value": 16, "unit": "mg/L"}, {"measurement": "MIC ATB combined with Example 6 @8 μg/ml", "setting": "ABA UFR158; with Example 6 @8 μg/ml", "value": "<0.25", "unit": "mg/L"}, {"measurement": "MIC ATB combined with Example 9 @4 μg/ml", "setting": "ABA UFR158; with Example 9 @4 μg/ml", "value": 16, "unit": "mg/L"}, {"measurement": "MIC ATB combined with Example 10 @8 μg/ml", "setting": "ABA UFR158; with Example 10 @8 μg/ml", "value": 16, "unit": "mg/L"}, {"measurement": "MIC ATB combined with Example 11 @8 μg/ml", "setting": "ABA UFR158; with Example 11 @8 μg/ml", "value": 16, "unit": "mg/L"}, {"measurement": "MIC ATB combined with Example 12 @8 μg/ml", "setting": "ABA UFR158; with Example 12 @8 μg/ml", "value": 16, "unit": "mg/L"}, {"measurement": "MIC ATB combined with Example 15 @4 μg/ml", "setting": "ABA UFR158; with Example 15 @4 μg/ml", "value": 32, "unit": "mg/L"}, {"measurement": "MIC ATB alone", "setting": "ABA UFR154; antibiotic alone", "value": 8, "unit": "mg/L"}, {"measurement": "MIC ATB combined with Example 1 @8 μg/ml", "setting": "ABA UFR154; with Example 1 @8 μg/ml", "value": 1, "unit": "mg/L"}, {"measurement": "MIC ATB combined with Example 3 @8 μg/ml", "setting": "ABA UFR154; with Example 3 @8 μg/ml", "value": 0.5, "unit": "mg/L"}, {"measurement": "MIC ATB combined with Example 6 @8 μg/ml", "setting": "ABA UFR154; with Example 6 @8 μg/ml", "value": "<=0.25 μg/mL"}, {"measurement": "MIC ATB combined with Example 9 @4 μg/ml", "setting": "ABA UFR154; with Example 9 @4 μg/ml", "value": 0.5, "unit": "mg/L"}, {"measurement": "MIC ATB combined with Example 10 @8 μg/ml", "setting": "ABA UFR154; with Example 10 @8 μg/ml", "value": "<=0.25 μg/mL"}, {"measurement": "MIC ATB combined with Example 11 @8 μg/ml", "setting": "ABA UFR154; with Example 11 @8 μg/ml", "value": "<=0.25 μg/mL"}, {"measurement": "MIC ATB combined with Example 12 @8 μg/ml", "setting": "ABA UFR154; with Example 12 @8 μg/ml", "value": "<=0.25 μg/mL"}, {"measurement": "MIC ATB combined with Example 15 @4 μg/ml", "setting": "ABA UFR154; with Example 15 @4 μg/ml", "value": 0.5, "unit": "mg/L"}, {"measurement": "MIC ATB alone", "setting": "ABA UFR153; antibiotic alone", "value": 4, "unit": "mg/L"}, {"measurement": "MIC ATB combined with Example 1 @8 μg/ml", "setting": "ABA UFR153; with Example 1 @8 μg/ml", "value": 1, "unit": "mg/L"}, {"measurement": "MIC ATB combined with Example 3 @8 μg/ml", "setting": "ABA UFR153; with Example 3 @8 μg/ml", "value": "<=0.25 μg/mL"}, {"measurement": "MIC ATB combined with Example 6 @8 μg/ml", "setting": "ABA UFR153; with Example 6 @8 μg/ml", "value": "<=0.25 μg/mL"}, {"measurement": "MIC ATB combined with Example 9 @4 μg/ml", "setting": "ABA UFR153; with Example 9 @4 μg/ml", "value": 0.5, "unit": "mg/L"}, {"measurement": "MIC ATB combined with Example 10 @8 μg/ml", "setting": "ABA UFR153; with Example 10 @8 μg/ml", "value": "<=0.25 μg/mL"}, {"measurement": "MIC ATB combined with Example 11 @8 μg/ml", "setting": "ABA UFR153; with Example 11 @8 μg/ml", "value": "<=0.25 μg/mL"}, {"measurement": "MIC ATB combined with Example 12 @8 μg/ml", "setting": "ABA UFR153; with Example 12 @8 μg/ml", "value": "<=0.25 μg/mL"}, {"measurement": "MIC ATB combined with Example 15 @4 μg/ml", "setting": "ABA UFR153; with Example 15 @4 μg/ml", "value": "<=0.25 μg/mL"}, {"measurement": "MIC ATB alone", "setting": "ABA 19606; antibiotic alone", "value": 1, "unit": "mg/L"}, {"measurement": "MIC ATB combined with Example 1 @8 μg/ml", "setting": "ABA 19606; with Example 1 @8 μg/ml", "value": 1, "unit": "mg/L"}, {"measurement": "MIC ATB combined with Example 3 @8 μg/ml", "setting": "ABA 19606; with Example 3 @8 μg/ml", "value": "<=0.25 μg/mL"}, {"measurement": "MIC ATB combined with Example 6 @8 μg/ml", "setting": "ABA 19606; with Example 6 @8 μg/ml", "value": "<=0.25 μg/mL"}]}]}
